Measured values as given in patent US5288720A, “Angiotensin II receptor blocking 2,3,6 substituted quinazolinones” (American Cyanamid Company, priority 1993, dated 1994).

Key:
Angiotensin II Receptor = biological target: T1, Angiotensin II Receptor (Bos taurus, UniProt P25104); experiment: Receptor Binding Assay: Binding of [^125 I](Sar^1,Ile^8)AngII to beef adrenal cortex membranes; conditions: 60 min, room temperature
T1 construct: The brownish tissue forming the adrenal cortex is scraped off and finely minced with scissors before homogenization; from tissue; host or cells: beef adrenal cortex, microsomal membranes (100,000×g pellet); fresh glands from a local slaughter house (Maxwell-Cohen)
T1 sequence (P25104 1-359): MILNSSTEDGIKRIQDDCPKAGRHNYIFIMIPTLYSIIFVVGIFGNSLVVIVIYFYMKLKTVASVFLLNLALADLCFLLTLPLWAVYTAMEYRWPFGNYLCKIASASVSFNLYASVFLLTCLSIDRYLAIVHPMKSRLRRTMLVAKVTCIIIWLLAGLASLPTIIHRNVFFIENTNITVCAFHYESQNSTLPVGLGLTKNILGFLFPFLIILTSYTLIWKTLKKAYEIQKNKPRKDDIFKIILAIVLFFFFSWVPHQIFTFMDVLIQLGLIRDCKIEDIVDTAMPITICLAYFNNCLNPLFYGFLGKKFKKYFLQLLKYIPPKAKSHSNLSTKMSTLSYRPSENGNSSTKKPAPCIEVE
Source text: Beef adrenals are obtained from a local slaughter house (Maxwell-Cohen). [^125 […]. 2200 Ci/mmole, is purchased from Dupont (NEN®, Boston, Mass.). All unlabeled AngII analogs, Dimethylsulfoxide (DMSO), nucleotides, bovine serum albumin (BSA) are purchased from Sigma Chemical Co., St. Louis, Mo. U.S.A. […] Approximately sixteen (16) to twenty (20) beef adrenal glands are processed as follows: fresh adrenal glands received on crushed ice are cleaned of fatty tissues and the tough membranes encapsulating the glands are removed and discarded. The brownish tissue forming the adrenal cortex is scraped off and finely minced with scissors before homogenization. Care is taken to avoid contamination with medullary tissue during dissection. The scraped cortices are suspended in twenty volumes of an ice-cold buffer medium consisting of 10 mM Tris.HCl (pH 7.4 at 22° C.) and containing 1.0 mM EDTA and 0.2M sucrose. Unless otherwise indicated, all subsequent operations are done at 4° C. […] The homogenate is centrifuged first at low speed (3,000×g) for 10 minutes. […] This P2 pellet is discarded and the liquid phase is carefully decanted off in clean centrifuge tubes and recentrifuged at high speed (100,000×g) for 60 minutes. The translucent final pellet is harvested and combined in a small volume (20-50.0 ml) of 50.0 mM Tris.HCl buffer, pH 7.2. A 100 ul aliquot is withdrawn and the protein content of the preparation is determined by the Lowry's method (Lowry, O. H., Rosebrough, […]. and Randall, R. J., Protein measurement with Folin phenol reagent. J. Biol. Chem., […], 265-275, 1951). The pelleted membrane is reconstituted in 50.0 mM Tris.HCl buffer containing 0.1 mM of phenylmethylsulfonyl fluoride (PMSF) to give approximately a protein concentration of 2.5 mg per ml of tissue suspension. […] Receptor Binding Assay: […] In competition studies, experimental compounds are diluted in dimethylsulfoxide (DMSO) and added in 20 ul to wells before the introduction of tissue membranes. […] Assays are performed in triplicate. The wells are left undisturbed for 60 minutes at room temperature. Following incubation, all wells are harvested at once with a Brandel® Harvester especially designed for a 96 well plate (Brandel® Biomedical Research & Development Labs. Inc., Gaithersburg, Md., U.S.A.). The filter discs are washed with 10×1.0 ml of cold 0.9% NaCl to remove unbound ligand. Presoaking the filter sheet in 0.1% polyethyleneimine in normal saline (PEI/Saline) greatly reduces the radioactivity retained by the filter blanks. This method is routinely used. The filters are removed from the filter grid and counted in a Parkard® Cobra Gamma Counter for 1 minutes. (Packard Instrument Co., Downers Grove, Ill, U.S.A.). The binding data are analyzed by the non-linear interactive "LUNDON-1" program (LUNDON SOFTWARE Inc., Cleveland, Ohio U.S.A.).

[1] = system: ANGIOTENSIN II VASOPRESSOR RESPONSE; experiment: AII Challenge: blockade of angiotensin II vasopressor response in conscious SHR; format: in vivo, rat (Conscious Male Okamoto-Aoki SHR); conditions: SHR n=2
Source text: By administering a compound of this invention to a rat, and then challenging with angiotensin II, a blockage of the vasopressor response is realized.
Conscious Male Okamoto-Aoki SHR, 16-20 weeks old, weighing approximately 330 g are purchased from Charles River Labs (Wilmington, Mass.). Conscious rats are restrained in a supine position with elastic tape. The area at the base of the tail is locally anesthetized by subcutaneous infiltration with 2% procaine. The ventral caudal artery and vein are isolated, and a cannula made of polyethylene (PE) 10-20 tubing (fused together by heat) is passed into the lower abdominal aorta and vena cava, respectively. The cannula is secured, heparinized (1,000 I.U./ml), sealed and the wound is closed. The animals are placed in plastic restraining cages in an upright position. The cannula is attached to a Statham P23Db pressure transducer, and pulsatile blood pressure is recorded to 10-15 minutes with a Gould Brush recorder. (Chan et al., (Drug Development Res., 18:75-94, 1989).
Angiotensin II (human sequence, Sigma Chem. Co., St. Louis, MO) of 0.05 and 0.1 ug/kg i.v. is injected into all rats (predosing response). Then a test compound, vehicle or a known angiotensin II antagonist is administered i.v., i.p. or orally to each set of rats. The two doses of angiotensin II are given to each rat again at 30, 60, 90, 120, 180, 240 and 300 minutes post dosing the compound or vehicle. The vasopressor response of angiotensin II is measured for the increase in systolic blood pressure in mmHg. The percentage of antagonism or blockade of the vasopressor response of angiotensin II by a compound is calculated using the vasopressor response (increase in systolic blood pressure) of angiotensin II of each rat predosing the compound as 100%. A compound is considered active if at 30 mg/kg i.v. it antagonized at least 50% of the response.

[2] = 10 mg/kg i.v., AII 0.05 mcg/kg IV, 30 min post dose
[3] = 10 mg/kg i.v., AII 0.05 mcg/kg IV, 60 min post dose
[4] = 10 mg/kg i.v., AII 0.05 mcg/kg IV, 90 min post dose
[5] = 10 mg/kg i.v., AII 0.05 mcg/kg IV, 120 min post dose
[6] = 10 mg/kg i.v., AII 0.05 mcg/kg IV, 180 min post dose
[7] = 10 mg/kg i.v., AII 0.05 mcg/kg IV, 240 min post dose
[8] = 10 mg/kg i.v., AII 0.05 mcg/kg IV, 300 min post dose
[9] = 10 mg/kg i.v., AII 0.1 mcg/kg IV, 30 min post dose
[10] = 10 mg/kg i.v., AII 0.1 mcg/kg IV, 60 min post dose
[11] = 10 mg/kg i.v., AII 0.1 mcg/kg IV, 90 min post dose
[12] = 10 mg/kg i.v., AII 0.1 mcg/kg IV, 120 min post dose
[13] = 10 mg/kg i.v., AII 0.1 mcg/kg IV, 180 min post dose
[14] = 10 mg/kg i.v., AII 0.1 mcg/kg IV, 240 min post dose
[15] = 10 mg/kg i.v., AII 0.1 mcg/kg IV, 300 min post dose
[16] = 3 mg/kg i.v., AII 0.05 mcg/kg IV, 30 min post dose
[17] = 3 mg/kg i.v., AII 0.05 mcg/kg IV, 60 min post dose
[18] = 3 mg/kg i.v., AII 0.05 mcg/kg IV, 90 min post dose
[19] = 3 mg/kg i.v., AII 0.05 mcg/kg IV, 120 min post dose
[20] = 3 mg/kg i.v., AII 0.05 mcg/kg IV, 180 min post dose
[21] = 3 mg/kg i.v., AII 0.05 mcg/kg IV, 240 min post dose
[22] = 3 mg/kg i.v., AII 0.05 mcg/kg IV, 300 min post dose
[23] = 3 mg/kg i.v., AII 0.1 mcg/kg IV, 30 min post dose
[24] = 3 mg/kg i.v., AII 0.1 mcg/kg IV, 60 min post dose
[25] = 3 mg/kg i.v., AII 0.1 mcg/kg IV, 90 min post dose
[26] = 3 mg/kg i.v., AII 0.1 mcg/kg IV, 120 min post dose
[27] = 3 mg/kg i.v., AII 0.1 mcg/kg IV, 180 min post dose
[28] = 3 mg/kg i.v., AII 0.1 mcg/kg IV, 240 min post dose
[29] = 3 mg/kg i.v., AII 0.1 mcg/kg IV, 300 min post dose

CCCCc1nc2ccc(C(C)(O)C3CCCN(C)C3=O)cc2c(=O)n1Cc1ccc(-c2ccccc2-c2nn[nH]n2)cc1 (single isomer, unassigned; isomer 1) [Example 52, 2-Butyl-6-[1-hydroxy(1-methyl-2-oxo-3-piperidinyl)ethyl]-3-[[2'-(1H-tetrazol-5-yl)-[1,1'-biphenyl]-4-yl]methyl]-4(3H)-quinazolinone, isomer 1]
IC50 (Angiotensin II Receptor): 62 nM
% Inhibition of AII vasopressor response [1, 2]: 71%
Average Change (systolic blood pressure response to AII) [1, 2]: 12.5 mmHg
% Inhibition of AII vasopressor response [1, 3]: 94%
Average Change (systolic blood pressure response to AII) [1, 3]: 2.5 mmHg
% Inhibition of AII vasopressor response [1, 4]: 76%
Average Change (systolic blood pressure response to AII) [1, 4]: 10 mmHg
% Inhibition of AII vasopressor response [1, 5]: 59%
Average Change (systolic blood pressure response to AII) [1, 5]: 17.5 mmHg
% Inhibition of AII vasopressor response [1, 6]: 47%
Average Change (systolic blood pressure response to AII) [1, 6]: 22.5 mmHg
% Inhibition of AII vasopressor response [1, 7]: 29%
Average Change (systolic blood pressure response to AII) [1, 7]: 30 mmHg
% Inhibition of AII vasopressor response [1, 8]: 47%
Average Change (systolic blood pressure response to AII) [1, 8]: 22.5 mmHg
% Inhibition of AII vasopressor response [1, 9]: 85%
Average Change (systolic blood pressure response to AII) [1, 9]: 7.5 mmHg
% Inhibition of AII vasopressor response [1, 10]: 90%
Average Change (systolic blood pressure response to AII) [1, 10]: 5 mmHg
% Inhibition of AII vasopressor response [1, 11]: 70%
Average Change (systolic blood pressure response to AII) [1, 11]: 15 mmHg
% Inhibition of AII vasopressor response [1, 12]: 80%
Average Change (systolic blood pressure response to AII) [1, 12]: 10 mmHg
% Inhibition of AII vasopressor response [1, 13]: 55%
Average Change (systolic blood pressure response to AII) [1, 13]: 22.5 mmHg
% Inhibition of AII vasopressor response [1, 14]: 45%
Average Change (systolic blood pressure response to AII) [1, 14]: 27.5 mmHg
% Inhibition of AII vasopressor response [1, 15]: 45%
Average Change (systolic blood pressure response to AII) [1, 15]: 27.5 mmHg

CCCCc1nc2ccc(C(O)C3CCCS3(=O)=O)cc2c(=O)n1Cc1ccc(-c2ccccc2-c2nn[nH]n2)cc1 (single isomer, unassigned; isomer 2) [Example 16, 2-Butyl-6-[hydroxy(tetrahydro-2-thienyl)methyl-3-[2'-(1H-tetrazol-5-yl)[1,1'biphenyl]-4-yl]methyl]-4(3H)-quinazolinone S, S-dioxide, isomer 2]
IC50 (Angiotensin II Receptor): 110 nM
% Inhibition of AII vasopressor response [1, 16]: 72%
Average Change (systolic blood pressure response to AII) [1, 16]: 12.5 mmHg
% Inhibition of AII vasopressor response [1, 17]: 30%
Average Change (systolic blood pressure response to AII) [1, 17]: 31.5 mmHg
% Inhibition of AII vasopressor response [1, 18]: 61%
Average Change (systolic blood pressure response to AII) [1, 18]: 17.5 mmHg
% Inhibition of AII vasopressor response [1, 19]: 71%
Average Change (systolic blood pressure response to AII) [1, 19]: 13 mmHg
% Inhibition of AII vasopressor response [1, 20]: 39%
Average Change (systolic blood pressure response to AII) [1, 20]: 27.5 mmHg
% Inhibition of AII vasopressor response [1, 21]: 39%
Average Change (systolic blood pressure response to AII) [1, 21]: 27.5 mmHg
% Inhibition of AII vasopressor response [1, 22]: 33%
Average Change (systolic blood pressure response to AII) [1, 22]: 30 mmHg
% Inhibition of AII vasopressor response [1, 23]: 43%
Average Change (systolic blood pressure response to AII) [1, 23]: 20 mmHg
% Inhibition of AII vasopressor response [1, 24]: 64%
Average Change (systolic blood pressure response to AII) [1, 24]: 12.5 mmHg
% Inhibition of AII vasopressor response [1, 25]: 36%
Average Change (systolic blood pressure response to AII) [1, 25]: 22.5 mmHg
% Inhibition of AII vasopressor response [1, 26]: 50%
Average Change (systolic blood pressure response to AII) [1, 26]: 17.5 mmHg
% Inhibition of AII vasopressor response [1, 27]: 14%
Average Change (systolic blood pressure response to AII) [1, 27]: 30 mmHg
% Inhibition of AII vasopressor response [1, 28]: 0%
Average Change (systolic blood pressure response to AII) [1, 28]: 35 mmHg
% Inhibition of AII vasopressor response [1, 29]: -21%
Average Change (systolic blood pressure response to AII) [1, 29]: 42.5 mmHg
